According to article PMC2857584 (Science (New York, N.Y.), 2009):

Biological target: T1, SepSecS (Homo sapiens, UniProt Q9HD40)
T1 sequence (Q9HD40 1-501): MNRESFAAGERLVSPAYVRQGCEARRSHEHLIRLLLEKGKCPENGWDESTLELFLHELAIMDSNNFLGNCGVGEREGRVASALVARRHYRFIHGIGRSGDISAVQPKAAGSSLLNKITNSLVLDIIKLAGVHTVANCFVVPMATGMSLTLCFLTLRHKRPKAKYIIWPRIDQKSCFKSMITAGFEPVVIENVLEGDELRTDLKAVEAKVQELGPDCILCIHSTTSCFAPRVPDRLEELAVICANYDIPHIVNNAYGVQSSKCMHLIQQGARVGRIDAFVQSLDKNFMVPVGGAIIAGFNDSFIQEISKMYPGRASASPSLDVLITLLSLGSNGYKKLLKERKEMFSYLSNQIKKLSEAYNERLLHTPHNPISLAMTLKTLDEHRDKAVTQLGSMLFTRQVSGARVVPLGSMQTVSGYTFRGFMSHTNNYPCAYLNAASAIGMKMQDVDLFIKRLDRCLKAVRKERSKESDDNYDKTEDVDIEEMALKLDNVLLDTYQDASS
Experiment: X-ray crystallography, […] A
Format: binding
Settings: covalent; Schiff base (internal aldimine) with Lys284

Compound: Cc1ncc(COP(=O)(O)O)c(C=O)c1O [PLP, pyridoxal phosphate]
- X-ray crystallography, 2.8 A: Each SepSecS monomer has a PLP cofactor covalently linked to the Nε-amino group
